In article PMC6508677, “Identification of druggable small molecule antagonists of the Plasmodium falciparum hexose transporter PfHT and assessment of ligand access to the glucose permeation pathway via FLAG-mediated protein engineering” (PLoS ONE, 2019):
Several values for one entry are separate records, joined by “and”; a condition that tells them apart may be missing. Equal entries are not always repeated.

Legend:
[1] = biological target: T1, PfHT (Plasmodium falciparum, UniProt Q7KWJ5); experiment: [3H]-D-glucose specific uptake into liposomes containing purified PfHT; type: biochemical; design: expressed in transfected cells; host or cells: HEK293 (HEK293-FLIP, native hGLUT1 knocked down by shRNA); settings: for D-Glc - L-Glc Uptake, Ave / D-Glc - L-Glc Uptake, individual experiments: PfHT liposomes
T1 sequence (Q7KWJ5 1-504): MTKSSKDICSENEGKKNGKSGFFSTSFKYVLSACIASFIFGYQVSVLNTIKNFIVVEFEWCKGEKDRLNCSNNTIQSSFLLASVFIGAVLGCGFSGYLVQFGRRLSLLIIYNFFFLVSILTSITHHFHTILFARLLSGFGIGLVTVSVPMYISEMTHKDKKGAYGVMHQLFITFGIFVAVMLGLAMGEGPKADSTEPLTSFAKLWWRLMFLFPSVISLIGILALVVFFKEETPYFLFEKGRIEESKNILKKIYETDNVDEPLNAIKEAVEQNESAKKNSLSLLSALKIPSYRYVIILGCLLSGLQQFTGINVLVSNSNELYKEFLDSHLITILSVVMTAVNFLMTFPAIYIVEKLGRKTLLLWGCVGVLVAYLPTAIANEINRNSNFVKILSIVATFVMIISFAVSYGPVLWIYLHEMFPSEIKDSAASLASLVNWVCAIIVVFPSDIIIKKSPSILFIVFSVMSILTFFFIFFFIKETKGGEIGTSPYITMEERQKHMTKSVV

[2] = biological target: T1, PfHT; experiment: ATB-BMPA photolabel binding to PfHT liposomes; design: expressed in transfected cells
Protocol: WU-1 inhibitor was added to PfHT liposomes for 10 min at room temperature. Samples (final volume, 110 μl) were then incubated for 10 min at room temperature with biotinylated ATB-BMPA (50 μM final concentration) and then placed on ice prior to UV irradiation. Reactions were transferred to a 24-well low protein retention culture dish (Costar, Corning, NY) and then irradiated at room temperature 5 cm from a Green Spot UV lamp for 1 min (30 sec of light followed by 30 sec of darkness followed by 30 sec of light). Unbound ATB-BMPA was removed using a 0.5 ml Zeba Spin Column (Thermo Scientific, Rockford, IL). Samples were analyzed by immunoblot analysis using a fluorescently labeled streptavidin (LI-COR Biosciences, Lincoln, NE). The amount of PfHT protein in each sample was quantified by SDS-PAGE stained with Blue BANDIT protein stain using a BSA standard curve. The streptavidin signal was then normalized to the amount of PfHT protein.

[3] = biological target: T1, PfHT; experiment: Kinetic analysis (Dixon plot) of zero-trans D-fructose uptake in HEK293PfHT cells; type: cell-based; design: expressed in transfected cells; host or cells: HEK293 (HEK293-FLIP, native hGLUT1 knocked down by shRNA)
Protocol: Glucose uptake by P. falciparum was performed essentially as described. P. falciparum strain 3D7 was cultured in 100 mm tissue culture dishes (Techno Plastic Products) in a 2% suspension of human erythrocytes and RPMI 1640 medium until reaching > 7.5% parasitemia. Cells were pelleted via centrifugation and resuspended in RPMI 1640 medium. To determine the uptake of radiolabeled glucose into the parasite, parasites were isolated from infected erythrocytes by permeablization with saponin (0.05 w/v), followed by centrifugation, aspiration of supernatant and washing of the pellet 3X with saline solution (135 mM NaCl, 2 mM KCl, 25 mM HEPES, 0.2 mM glucose and 1 mM MgCl2; pH 7.1) to remove cellular debris. WU-1 or DMSO vehicle were added to 100 μl parasites (resuspended in saline) 5 min prior to the addition of 100 μl [^14C]2-DOG (0.2- μCi/ml final concentration). 2-DG uptake was stopped after 2 min by layering the entire reaction over 300 μl of an oil mixture (5:4 mix of dibutyl phthalate / dinonyl phthalate) in Eppendorf tubes and centrifuged at 15,850 × g for 2 mins. The ratio of the estimated intracellular concentration of radiolabel relative to the extracellular concentration were calculated as described. Uptake of radiolabeled hexose into HEK293 cells was measured in glucose-free HBSS as described previously. Briefly, cells were plated at 400,000 cells/well overnight at 37°C in 24-well plates pre-treated with PEI. After 30-min incubation at 37°C in glucose-free HBSS in the presence of vehicle or increasing concentrations of compound, 2-DG uptake was measured in glucose-free HBSS for 4 min at 37°C. Cultures were washed in ice-cold 1X PBS and lysed in 0.1% Triton X-100 in 1X PBS. Radiolabeled hexose uptake was determined by liquid scintillation counting (Ultima Gold, Thermo Fisher) and normalized to total protein per well. […] Incubation times had been previously determined as being in the linear range of time-dependent radiolabeled hexose uptake (2 min for 2-DG uptake into freed parasites; 2 and 4 min for D-Frc and 2-DG uptake HEK cell lines, respectively). […]

## Cc1ccc(S(=O)(=O)CCNC(=O)c2c(-c3c(Cl)cccc3Cl)noc2C)cc1 [WU-1, 3-(2,6-dichlorophenyl)-5-methyl-N-[2-(4-methylbenzenesulfonyl)ethyl]-1,2-oxazole-4-carboxamide]
[1]; IC50 for specific D-glucose uptake (D-glucose minus L-glucose) into PfHT liposomes, purified PfHT, zero-trans, mean
  IC50: 5.9 ± 0.8 µM
[1]; IC50 for specific D-glucose uptake into PfHT liposomes, individual experiments, Expt 1-3
  IC50: 7.34 µM and 4.58 µM and 5.92 µM
[1]; 0.001 µM WU-1
  D-Glc - L-Glc Uptake, Ave: 21.51 pmol/µg PfHT
  D-Glc - L-Glc Uptake, individual experiments: 20.93 pmol/µg PfHT and 22.42 pmol/µg PfHT and 21.19 pmol/µg PfHT
[1]; 0.625 µM WU-1
  D-Glc - L-Glc Uptake, Ave: 22.79 pmol/µg PfHT
  D-Glc - L-Glc Uptake, individual experiments: 21.85 pmol/µg PfHT and 22.43 pmol/µg PfHT and 24.08 pmol/µg PfHT
[1]; 1.25 µM WU-1
  D-Glc - L-Glc Uptake, Ave: 19.33 pmol/µg PfHT
  D-Glc - L-Glc Uptake, individual experiments: 16.67 pmol/µg PfHT and 24.18 pmol/µg PfHT and 17.15 pmol/µg PfHT
[1]; 2.5 µM WU-1
  D-Glc - L-Glc Uptake, Ave: 18.48 pmol/µg PfHT
  D-Glc - L-Glc Uptake, individual experiments: 16.28 pmol/µg PfHT and 15.54 pmol/µg PfHT and 23.61 pmol/µg PfHT
[1]; 5 µM WU-1
  D-Glc - L-Glc Uptake, Ave: 10 pmol/µg PfHT
  D-Glc - L-Glc Uptake, individual experiments: 13.49 pmol/µg PfHT and 7.15 pmol/µg PfHT and 9.35 pmol/µg PfHT
[1]; 10 µM WU-1
  D-Glc - L-Glc Uptake, Ave: 7.99 pmol/µg PfHT
  D-Glc - L-Glc Uptake, individual experiments: 7.38 pmol/µg PfHT and 9.19 pmol/µg PfHT and 7.39 pmol/µg PfHT
[1]; 20 µM WU-1
  D-Glc - L-Glc Uptake, Ave: 5.15 pmol/µg PfHT
  D-Glc - L-Glc Uptake, individual experiments: 6.58 pmol/µg PfHT and 4.82 pmol/µg PfHT and 4.04 pmol/µg PfHT
[1]; 40 µM WU-1
  D-Glc - L-Glc Uptake, Ave: 2.74 pmol/µg PfHT
  D-Glc - L-Glc Uptake, individual experiments: 3.05 pmol/µg PfHT and 1.92 pmol/µg PfHT and 3.24 pmol/µg PfHT
[1]; 80 µM WU-1
  D-Glc - L-Glc Uptake, Ave: -0.29 pmol/µg PfHT
  D-Glc - L-Glc Uptake, individual experiments: 0.605 pmol/µg PfHT and -1.53 pmol/µg PfHT and 0.06 pmol/µg PfHT
[1]; 160 µM WU-1
  D-Glc - L-Glc Uptake, Ave: -0.167 pmol/µg PfHT
  D-Glc - L-Glc Uptake, individual experiments: 0.75 pmol/µg PfHT and -0.06 pmol/µg PfHT and -1.19 pmol/µg PfHT
[2]; 10 μM WU-1, PfHT liposomes
  decrease of biotinylated ATB-BMPA photolabel binding to PfHT: ~ 60%
[2]; 10µM WU-1, individual samples
  ATB-BMPA labeling, Strep signal: 15.08 and 15.68 and 15.48
  ATB-BMPA labeling, Strep/Protein: 1.91 and 1.96 and 1.99
  ATB-BMPA labeling, Strep/Protein normalized to 100% Control: 40.83 and 41.46
[2]; 10µM WU-1, mean of 3
  ATB-BMPA labeling, normalized Ave: 40.69
[2]; read-out: ATB-BMPA labeling, Strep/Protein normalized to 100% Control, 10µM WU-1, individual samples
  remaining activity at 10 µM: 39.8%
[3]; Ki (Dixon plot, horizontal intercepts), zero-trans D-fructose uptake, HEK293PfHT, mean
  Ki: 4.4 ± 0.3 µM
[3]; Ki (µM) from individual Dixon lines, one value per D-fructose concentration line
  Ki: 5.32 µM and 4.25 µM and 3.83 µM and 4.22 µM
[3]; zero-trans D-fructose uptake/hexose influx by PfHT
  mode of inhibition: non-competitive inhibitor
